Assay results as given in patent US20060258003A1, “Culture medium composition, culture method, and myoblasts obtained, and their uses” (CELOGOS, priority 2002, published 2006).

What was measured:
human muscle cells [1] = assay: Toxicity of commercial statins on human muscle cells; assay type: cell-based; conditions: 0-1 μM; FIG. 4; total culture time 5 days
Procedure: These experiments were reproduced with human muscle cells in order to test the toxicity of the commercial statins.
The experimentation procedure is as follows.
On day 1 the media are changed. On day 3 staining is carried out.
The total culture time is 5 days.
After aspiration of the culture medium, the cells are washed with PBS then fixed with 100% ethanol. 10 minutes later the cells are washed with water then stained with a solution of 10% Giemsa for 10 minutes. The final step is washing with water.
Images of the cells are obtained with an inverted microscope (Nikon) equipped with a digital camera and a motorized stage.

[2] = compared with other statins; cited from earlier work
human muscle cells [3] = assay: Effect of Hepes buffer on long-term growth of human muscle cells; assay type: cell-based; conditions: 15 mM in culture medium
rat adipocyte cells = assay: Cell test predictive of muscle toxicity, rat adipocyte cells; conditions: 0.5 μM; 2 days culture

Compound: COCc1c(C(C)C)nc(C(C)C)c(/C=C/[C@@H](O)C[C@@H](O)CC(=O)O)c1-c1ccc(F)cc1 [Cerivastatin]
- toxicity on human muscle cells (human muscle cells [1]): high toxicity
- toxicity in human clinical use [2]: most toxic statin

Compound: O=S(=O)(O)CCN1CCN(CCO)CC1 [Hepes]
- growth of human muscle cells in the long term (human muscle cells [3]): inhibits the growth

Compound: CC[C@H](C)C(=O)O[C@H]1C[C@@H](C)C=C2C=C[C@H](C)[C@H](CC[C@@H]3C[C@@H](O)CC(=O)O3)[C@H]21 [Lovastatin]
- sensitivity of adipocyte cells (rat adipocyte cells): insensitive
